# Measured values reported in ChEMBL document CHEMBL1201862, “PubChem BioAssay data set” (2004).
# Active and inactive are the calls of the source.
# Key:
# [1] = biological target: T1, Short transient receptor potential channel 4 (Mus musculus, UniProt Q9QUQ5); assay: mouse TRPC4 channel inhibitors, dose response, cell-based, HEK293 TRPC4/mu-opioid, Fluo-4 calcium (AID 434942); assay type: functional;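 also: potency of inhibitors blocking the TRPC4 calcium response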
# T1 sequence (Q9QUQ5 whole entry): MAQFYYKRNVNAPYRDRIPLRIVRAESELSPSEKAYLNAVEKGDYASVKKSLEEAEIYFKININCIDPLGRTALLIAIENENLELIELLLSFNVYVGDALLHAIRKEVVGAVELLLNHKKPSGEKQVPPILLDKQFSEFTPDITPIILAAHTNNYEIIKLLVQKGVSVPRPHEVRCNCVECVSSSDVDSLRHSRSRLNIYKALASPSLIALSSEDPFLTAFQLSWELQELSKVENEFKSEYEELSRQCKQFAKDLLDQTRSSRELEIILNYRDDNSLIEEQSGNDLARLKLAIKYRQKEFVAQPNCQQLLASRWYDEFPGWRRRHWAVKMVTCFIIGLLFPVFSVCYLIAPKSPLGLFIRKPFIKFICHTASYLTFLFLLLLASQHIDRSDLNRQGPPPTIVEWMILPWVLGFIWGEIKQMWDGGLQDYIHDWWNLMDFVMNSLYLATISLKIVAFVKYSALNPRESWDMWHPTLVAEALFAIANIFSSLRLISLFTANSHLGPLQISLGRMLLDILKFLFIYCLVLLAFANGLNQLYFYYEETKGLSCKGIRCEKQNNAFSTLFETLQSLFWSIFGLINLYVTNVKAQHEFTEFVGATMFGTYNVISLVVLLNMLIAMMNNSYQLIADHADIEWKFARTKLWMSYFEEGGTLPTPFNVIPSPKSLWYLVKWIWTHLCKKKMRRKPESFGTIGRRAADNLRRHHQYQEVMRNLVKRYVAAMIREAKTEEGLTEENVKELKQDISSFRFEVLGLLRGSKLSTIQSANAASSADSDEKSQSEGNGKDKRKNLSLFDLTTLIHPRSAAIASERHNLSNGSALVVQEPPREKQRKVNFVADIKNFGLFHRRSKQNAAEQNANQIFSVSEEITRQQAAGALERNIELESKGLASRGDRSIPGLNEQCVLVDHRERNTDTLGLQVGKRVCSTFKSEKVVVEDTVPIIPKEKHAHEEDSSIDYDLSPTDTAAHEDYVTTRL
# HEK293 [2] = assay: NOD1 signaling inhibitors, primary screen, cell-based, luminescence, uHTS (AID 1578); assay type: functional; settings: Homo sapiens
# HEK293 [3] = assay: cells; assay type: functional, cell-based; settings: Homo sapiens
# HEK293 [4] = assay: cells; assay type: functional, cell-based; settings: Homo sapiens; remark: listed apart in the source
# [5] = biological target: Nucleotide-binding oligomerization domain-containing protein 2 (Homo sapiens, UniProt Q9HC29); assay: NOD2 signaling inhibitors, cell-based, luminescence, uHTS, HEK293 (AID 1566); assay type: functional
# Sequence of Nucleotide-binding oligomerization domain-containing protein 2 (Q9HC29 whole entry, the tested form may be a part): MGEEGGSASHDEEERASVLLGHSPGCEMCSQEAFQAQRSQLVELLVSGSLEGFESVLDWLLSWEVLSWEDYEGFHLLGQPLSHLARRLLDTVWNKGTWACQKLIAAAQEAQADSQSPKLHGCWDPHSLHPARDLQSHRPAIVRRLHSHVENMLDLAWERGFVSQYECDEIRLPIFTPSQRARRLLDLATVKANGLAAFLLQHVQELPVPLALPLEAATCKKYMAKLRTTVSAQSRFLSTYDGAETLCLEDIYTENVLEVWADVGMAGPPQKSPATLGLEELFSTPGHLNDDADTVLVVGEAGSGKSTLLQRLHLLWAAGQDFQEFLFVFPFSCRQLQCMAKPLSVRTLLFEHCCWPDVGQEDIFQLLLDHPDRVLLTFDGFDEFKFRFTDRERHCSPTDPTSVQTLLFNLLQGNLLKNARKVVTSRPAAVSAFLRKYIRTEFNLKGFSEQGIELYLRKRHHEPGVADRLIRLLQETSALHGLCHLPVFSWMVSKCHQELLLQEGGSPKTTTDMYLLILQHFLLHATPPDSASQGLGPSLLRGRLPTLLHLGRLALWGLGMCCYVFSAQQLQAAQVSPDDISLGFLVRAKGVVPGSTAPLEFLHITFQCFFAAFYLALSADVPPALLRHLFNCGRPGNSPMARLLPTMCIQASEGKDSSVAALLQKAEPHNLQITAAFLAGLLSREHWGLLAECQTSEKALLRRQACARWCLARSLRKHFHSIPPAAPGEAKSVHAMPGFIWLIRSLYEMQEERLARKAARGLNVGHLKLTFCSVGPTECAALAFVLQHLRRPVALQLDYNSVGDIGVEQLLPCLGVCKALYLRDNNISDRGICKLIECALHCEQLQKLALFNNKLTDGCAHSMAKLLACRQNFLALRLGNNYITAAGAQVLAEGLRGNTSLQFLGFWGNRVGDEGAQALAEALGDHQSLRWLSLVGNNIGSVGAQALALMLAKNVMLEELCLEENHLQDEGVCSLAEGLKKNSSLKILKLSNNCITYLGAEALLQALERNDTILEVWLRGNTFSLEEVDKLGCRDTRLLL
# HEK293 [6] = assay: NOD2 signaling inhibitors in MDP-stimulated cells, cell-based, uHTS, luminescence (AID 2001); assay type: functional; settings: Homo sapiens
# HEK293 [7] = assay: cells; assay type: functional, cell-based; settings: Homo sapiens; remark: listed apart in the source
# Cytochrome P450 3A4 = Cytochrome P450 3A4 (Homo sapiens, UniProt P08684); settings: Potency;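 also: confirmatory qHTS run detecting inhibitors and substrates of CYP3A4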
# Sequence of Cytochrome P450 3A4 (P08684 whole entry): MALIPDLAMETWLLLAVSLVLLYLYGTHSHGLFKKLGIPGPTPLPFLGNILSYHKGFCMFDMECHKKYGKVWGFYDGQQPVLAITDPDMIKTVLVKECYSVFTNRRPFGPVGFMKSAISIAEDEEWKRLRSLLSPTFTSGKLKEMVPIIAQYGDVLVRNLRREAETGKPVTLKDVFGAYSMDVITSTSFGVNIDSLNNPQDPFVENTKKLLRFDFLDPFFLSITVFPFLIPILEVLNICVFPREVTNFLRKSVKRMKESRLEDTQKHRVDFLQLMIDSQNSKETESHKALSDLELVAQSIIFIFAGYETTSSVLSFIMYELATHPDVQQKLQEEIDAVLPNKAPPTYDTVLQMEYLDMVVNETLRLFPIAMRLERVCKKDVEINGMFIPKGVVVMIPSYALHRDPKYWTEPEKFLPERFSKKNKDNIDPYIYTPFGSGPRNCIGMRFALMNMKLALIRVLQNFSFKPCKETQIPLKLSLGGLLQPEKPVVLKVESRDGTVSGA
# [8] = biological target: T2, Dual specificity protein phosphatase 6 (Rattus norvegicus, UniProt Q64346); assay: MKP-3 phosphatase inhibitors, primary screen, biochemical, rat enzyme, in vitro (AID 425)
# T2 sequence (Q64346 whole entry): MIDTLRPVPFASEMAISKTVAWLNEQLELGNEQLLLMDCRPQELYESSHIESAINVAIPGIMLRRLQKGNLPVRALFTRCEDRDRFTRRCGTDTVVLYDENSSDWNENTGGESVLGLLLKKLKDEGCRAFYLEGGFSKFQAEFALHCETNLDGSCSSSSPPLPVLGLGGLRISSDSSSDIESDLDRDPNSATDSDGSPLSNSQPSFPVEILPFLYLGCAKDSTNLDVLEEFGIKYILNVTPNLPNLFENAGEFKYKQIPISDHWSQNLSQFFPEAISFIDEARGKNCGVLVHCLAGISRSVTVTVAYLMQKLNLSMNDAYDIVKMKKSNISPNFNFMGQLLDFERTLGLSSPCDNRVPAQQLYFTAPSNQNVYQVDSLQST
# NADPH oxidase 1 = biological target: T3, NADPH oxidase 1 (Homo sapiens, UniProt Q9Y5S8); assay type: functional, cell-based;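 also: Cell-based assay with luminescence read-out, IC50 derived from inhibitor dose-response curves; intracellular ROS from endogenous NOX1 in intact HT29 colon cancer cells; potency of inhibitors that lower the ROS luminescence signal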
# T3 sequence (Q9Y5S8 whole entry): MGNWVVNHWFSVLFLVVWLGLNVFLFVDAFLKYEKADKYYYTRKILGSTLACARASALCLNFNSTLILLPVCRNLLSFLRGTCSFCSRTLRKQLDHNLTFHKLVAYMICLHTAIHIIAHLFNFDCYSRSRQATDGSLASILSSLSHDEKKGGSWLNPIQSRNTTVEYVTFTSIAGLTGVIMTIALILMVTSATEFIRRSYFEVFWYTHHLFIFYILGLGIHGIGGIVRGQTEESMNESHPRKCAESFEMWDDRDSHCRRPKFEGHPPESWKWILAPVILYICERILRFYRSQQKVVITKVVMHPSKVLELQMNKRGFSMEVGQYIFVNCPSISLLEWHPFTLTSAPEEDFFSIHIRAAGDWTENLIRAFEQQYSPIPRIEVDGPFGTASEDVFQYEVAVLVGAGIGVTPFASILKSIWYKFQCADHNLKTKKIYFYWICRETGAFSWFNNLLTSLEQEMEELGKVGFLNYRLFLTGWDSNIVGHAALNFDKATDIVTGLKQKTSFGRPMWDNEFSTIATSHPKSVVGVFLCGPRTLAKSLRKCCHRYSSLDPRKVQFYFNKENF
# Cytochrome P450 2C9 = Cytochrome P450 2C9 (Homo sapiens, UniProt P11712)
# Sequence of Cytochrome P450 2C9 (P11712 whole entry): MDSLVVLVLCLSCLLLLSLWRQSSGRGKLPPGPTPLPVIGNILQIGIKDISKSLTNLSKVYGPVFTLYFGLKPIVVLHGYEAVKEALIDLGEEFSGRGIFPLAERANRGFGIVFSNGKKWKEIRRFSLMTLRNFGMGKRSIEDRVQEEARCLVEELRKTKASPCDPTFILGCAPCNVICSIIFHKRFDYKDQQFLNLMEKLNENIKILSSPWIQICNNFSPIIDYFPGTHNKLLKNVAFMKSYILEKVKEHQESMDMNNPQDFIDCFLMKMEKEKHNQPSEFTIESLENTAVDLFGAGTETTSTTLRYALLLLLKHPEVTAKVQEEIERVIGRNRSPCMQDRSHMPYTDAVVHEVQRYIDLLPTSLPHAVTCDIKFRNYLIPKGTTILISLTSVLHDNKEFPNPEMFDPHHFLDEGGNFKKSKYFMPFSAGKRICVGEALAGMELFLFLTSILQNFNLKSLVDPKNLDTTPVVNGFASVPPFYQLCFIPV
# Prothrombin = Prothrombin (Homo sapiens, UniProt P00734); assay: Thrombin 1536 HTS Dose Response Confirmation. [Related pubchem assays: 1046 (Thrombin 1536 HTS; hits were confirmed in this assay)]; assay type: functional
# [9] = biological target: T4, High affinity choline transporter 1 (Homo sapiens, UniProt Q9GZV3); assay: CHT inhibitors, dose response, cell-based, 5-point CRC, membrane potential dye (AID 504840); assay type: functional
# T4 sequence (Q9GZV3 whole entry): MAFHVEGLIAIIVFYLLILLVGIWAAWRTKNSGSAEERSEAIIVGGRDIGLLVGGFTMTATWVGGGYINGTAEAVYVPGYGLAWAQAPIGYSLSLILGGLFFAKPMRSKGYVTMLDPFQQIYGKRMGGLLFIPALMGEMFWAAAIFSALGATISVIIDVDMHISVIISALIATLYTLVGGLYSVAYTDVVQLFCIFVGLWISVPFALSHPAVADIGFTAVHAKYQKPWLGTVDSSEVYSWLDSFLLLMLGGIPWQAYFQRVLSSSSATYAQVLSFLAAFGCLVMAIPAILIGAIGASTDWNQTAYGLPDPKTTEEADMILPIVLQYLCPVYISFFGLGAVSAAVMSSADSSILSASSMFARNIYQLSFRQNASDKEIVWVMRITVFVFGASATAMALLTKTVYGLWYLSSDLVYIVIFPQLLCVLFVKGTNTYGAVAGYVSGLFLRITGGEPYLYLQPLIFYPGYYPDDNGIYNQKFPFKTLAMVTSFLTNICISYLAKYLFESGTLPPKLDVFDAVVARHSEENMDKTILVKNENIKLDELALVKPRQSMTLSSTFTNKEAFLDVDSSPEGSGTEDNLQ
# Vero = assay: cells; assay type: functional; settings: Chlorocebus sabaeus
# [10] = biological target: T1, Short transient receptor potential channel 4; assay: mouse TRPC4 channel activators, dose response, cell-based, HEK293 TRPC4/mu-opioid, Fluo-4 calcium (AID 434937); assay type: functional
# [11] = Luminescence Cell-Based Dose Retest to Confirm Inhibitors of Cancer Stem Cells. [Related pubchem assays (depositor defined):AID2717, AID2721]; assay type: functional; settings: Homo sapiens
# [12] = biological target: T5, Rac GTPase-activating protein 1 (Homo sapiens, UniProt Q9H0H5); assay: MgcRacGAP GTPase-activating activity inhibitors, confirmation, biochemical, ADP Hunter fluorescence, primary and confirmatory (AID 624330); assay type: functional
# T5 sequence (Q9H0H5 whole entry): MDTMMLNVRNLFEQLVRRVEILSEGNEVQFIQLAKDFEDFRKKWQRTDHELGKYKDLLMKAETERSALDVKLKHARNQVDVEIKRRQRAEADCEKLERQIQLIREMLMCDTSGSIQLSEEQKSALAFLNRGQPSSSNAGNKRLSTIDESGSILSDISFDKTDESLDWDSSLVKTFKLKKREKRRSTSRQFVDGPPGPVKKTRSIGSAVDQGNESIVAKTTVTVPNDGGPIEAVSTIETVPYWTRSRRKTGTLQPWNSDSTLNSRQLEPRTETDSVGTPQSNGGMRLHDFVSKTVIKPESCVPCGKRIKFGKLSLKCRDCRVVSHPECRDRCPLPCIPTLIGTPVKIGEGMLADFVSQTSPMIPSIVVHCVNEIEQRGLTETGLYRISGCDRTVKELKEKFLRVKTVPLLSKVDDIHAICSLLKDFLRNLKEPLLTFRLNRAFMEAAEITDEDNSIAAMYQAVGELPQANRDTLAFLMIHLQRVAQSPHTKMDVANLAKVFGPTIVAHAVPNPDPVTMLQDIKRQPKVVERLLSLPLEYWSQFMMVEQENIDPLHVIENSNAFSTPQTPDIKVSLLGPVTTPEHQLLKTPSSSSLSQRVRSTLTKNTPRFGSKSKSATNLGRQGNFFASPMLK
# Coagulation factor XII = biological target: T6, Coagulation factor XII (Homo sapiens, UniProt P00748); assay type: functional;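 also: activated factor XIIa alpha cleaving a fluorogenic AMC peptide substrate; inhibitor potency from loss of enzyme activity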
# T6 sequence (P00748 whole entry): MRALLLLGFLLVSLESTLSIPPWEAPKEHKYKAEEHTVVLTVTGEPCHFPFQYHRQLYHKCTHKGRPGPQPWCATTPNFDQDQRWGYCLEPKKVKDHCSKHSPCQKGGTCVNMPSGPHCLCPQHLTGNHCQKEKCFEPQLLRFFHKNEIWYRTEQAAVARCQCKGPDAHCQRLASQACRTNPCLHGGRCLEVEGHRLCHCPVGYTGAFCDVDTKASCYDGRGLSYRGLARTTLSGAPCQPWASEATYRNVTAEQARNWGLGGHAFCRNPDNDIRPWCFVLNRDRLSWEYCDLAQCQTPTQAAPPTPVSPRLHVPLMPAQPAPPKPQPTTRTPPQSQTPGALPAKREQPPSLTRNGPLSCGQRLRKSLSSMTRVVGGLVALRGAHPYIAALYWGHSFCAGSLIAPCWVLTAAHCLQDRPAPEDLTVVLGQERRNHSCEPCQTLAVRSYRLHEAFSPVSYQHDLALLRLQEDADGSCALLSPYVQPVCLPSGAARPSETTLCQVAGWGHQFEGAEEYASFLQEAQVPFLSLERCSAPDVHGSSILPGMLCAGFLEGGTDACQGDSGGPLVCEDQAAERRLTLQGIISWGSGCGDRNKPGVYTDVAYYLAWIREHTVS
# [13] = system: Streptococcus sp. 'group A'; assay: growth inhibition of control SK(-) GAS strain, dose response, counter-screen for streptokinase expression inhibitor project, luminescence, kanamycin, BacTiterGlo, confirmation (AID 1900); assay type: functional, organism-based
# Streptococcus = assay: Group A Streptococcus viability loss, dose response, counter-screen for streptokinase expression inhibitor project, luminescence, BacTiterGlo (AID 1915); assay type: functional, organism-based;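 also: potency for reduction of bacterial viability or growth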
# INS1 = assay: beta cell apoptosis inhibitors, cytokine rescue, dose response, luminescence, retest (AID 449756); assay type: functional, cell-based; settings: Rattus norvegicus;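 also: cell death triggered by IL-1 beta plus TNF-alpha plus IFN-gamma mixture; protective hits raise ATP signal compared with cytokine alone wells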
smiles,measurement,setting,value
COc1ccc(F)cc1C(=O)C1CCCN(Cc2ccc3c(c2)OCCO3)C1 (stereo not given),EC50,[1],1.33 µM (active)
CCc1ccc(OCC(=O)Nc2ccc(-c3cc4ccccc4oc3=O)c(OC)c2)cc1,EC50,HEK293 [2],2.18 µM (active)
same,IC50,HEK293 [3],2.79 µM (active)
same,IC50,HEK293 [4],11.3 µM (active)
same,EC50,[5],5.25 µM (active)
same,IC50,HEK293 [6],2.94 µM (active)
same,IC50,HEK293 [7],> 20 µM (inactive)
CNC(=O)[C@@]1(C)C=C[C@@H](Cc2ccccc2)N1C(=O)OC,AC50,Cytochrome P450 3A4,3.16 µM (inconclusive)
COC(=O)c1ccccc1NC(=O)Nc1cc(C)cc(C)n1,IC50,[8],> 100 µM (not active)
CSc1ccc(NC(=O)Nc2ccc(N(C)C)cc2)cc1,IC50,NADPH oxidase 1,0.0777 µM (active)
CCN(CC)c1ccc(NC(=O)Nc2ccc(OCc3ccccc3)cc2)cc1,IC50,NADPH oxidase 1,0.235 µM (active)
CCC(=O)CC(NC(=O)OC)c1ccccc1 (stereo not given),AC50,Cytochrome P450 3A4,6.31 µM (inconclusive)
Cc1ccc(OP(=O)(Oc2ccc(C)cc2)N2C=Cc3ccccc3[C@H]2C#N)cc1,AC50,Cytochrome P450 2C9,inconclusive
N#Cc1cccc(-c2nc3cnc(N4CCOCC4)nc3n(Cc3ccc(F)cc3)c2=O)c1,AC50,Cytochrome P450 2C9,inconclusive
Cn1c(SCC(=O)NC2CCCC2)nnc1-c1ccc(S(=O)(=O)N2CCOCC2)cc1,IC50,Prothrombin,> 50 µM (not active)
O=C(c1ccc(-c2ccccc2)cc1)N1CCN(Cc2ccccn2)CC1,IC50,[8],> 100 µM (not active)
Cc1cc(OCc2cc(C(=O)NCCN3CCCCC3CO)no2)cc(C)c1Cl (stereo not given),EC50,[1],2.99 µM (active)
same,IC50,[9],18.2 µM (active)
same,CC50,Vero,> 25 µM (active)
Fc1ccc(NC(=S)NNC(=S)Nc2ccccc2)cc1,IC50,NADPH oxidase 1,0.218 µM (active)
O=C(Oc1ccc([N+](=O)[O-])cc1)c1sc2ccccc2c1Cl,IC50,NADPH oxidase 1,> 17 µM (not active)
N#Cc1sc2nc(-c3ccccc3)cc(C(F)(F)F)c2c1N,IC50,Prothrombin,> 50 µM (not active)
CN(C)C(CNC(=O)Cc1cccc(C(F)(F)F)c1)c1ccccc1 (stereo not given),EC50,[1],0.0093 µM (active)
same,EC50,[10],0.0947 µM (active)
COc1cc(/C=C/C(=O)c2ccc3c(c2)OCO3)cc(Cl)c1O,AC50,[11],6.39 µM (active)
same,EC50,[10],5.96 µM (active)
same,IC50,[12],93.6 µM (active)
O=C(N/N=C/c1ccc(OCc2cnc(Cl)s2)cc1)c1ccncc1,IC50,Prothrombin,> 50 µM (not active)
same,IC50,Coagulation factor XII,> 50 µM (inactive)
O=C(N/N=C/c1cccc(F)c1)c1c(O)nc2ccccc2c1O,EC50,[13],2.87 µM (active)
same,IC50,Prothrombin,> 50 µM (not active)
same,EC50,Streptococcus,3.03 µM (active)
same,AC50,INS1,3.63 µM (active)
"CCOC(=O)C1(O)Oc2cc(OC)cc(OC)c2C(=O)C1c1ccccc1 (stereo not given) [2-ETHOXYCARBONYL-2-HYDROXY-5,7-DIMETHOXYISOFLAVANONE]",AC50,Cytochrome P450 3A4,20 µM (inconclusive)
Nc1ccc2ccccc2c1 [NAPHTHYLAMINE],AC50,Cytochrome P450 3A4,12.6 µM (inconclusive)
